Common to all, as to type: physicochemical
Data set [1] can be described thus: UV-Vis absorption (absorption maximum, extinction coefficient). Here is the method: (§1) Depending on the basic structure and substitution, the absorption maxima lie in the entire range of visible light, with a focus at 500-530 nm. The compounds show a high Stokes shift in the range of 80 nm. The absorption is measured, for example, at 25° C. in aqueous or ethanolic solutions with an extinction of 1.0 using a Specord 205 from Analytik Jena, wherein the aqueous solutions are preferably phosphate-buffered salt solutions (PBS buffer; approx. 100 mM sodium chloride and 100 mM total phosphate) and have a pH of 7.5. For example, the emission is measured at 25° C. in dilute aqueous or ethanolic solutions with an extinction of 0.1 using a FP-6600 spectrofluorometer from Jasco, wherein the dilute aqueous solutions are preferably phosphate-buffered salt solutions (PBS buffer; about 100 mM sodium chloride and 100 mM total phosphate) and have a pH of 7.5.

Data set [2] in a line: Fluorescence emission (emission maximum). Here is the method:
as §1

Data set [3] can be described thus: Fluorescence quantum yield. Here is the method:
Preferably, the fluorescence quantum yield of a compound according to the invention is 0.1 to 0.95, more preferably 0.5 to 0.9. Fluorescence quantum yields are preferably determined at 25° C. in dilute aqueous or ethanolic solutions with an extinction of 0.1 using a Hamamatsu Absolute Photoluminescence Quantum Yield Measurement System C-9920, wherein the dilute aqueous solutions are preferably phosphate-buffered salt solutions (PBS buffer; about 100 mM sodium chloride and 100 mM total phosphate) and have a pH of 7.5. The compounds thus complement the already commercially available dyes with high Stokes Shift or represent better fluorescent alternatives.

We go through 15 compounds from patent US20230159484A1, “FLUORESCENT DYES HAVING HIGH STOKES SHIFT, ON THE BASIS OF BRIDGED BENZOPYRYLIUM SALTS” (DYOMICS GmbH, priority 2020, published 2023).

As for `CCN(CC)c1ccc2cc3c([o+]c2c1)C=C(NCCCCCC(=O)O)CC3(C)C.[Cl-]` [Compound 3, 6-[[6-(diethylamino)-1,1-dimethyl-2H-xanthene-10-ium-3-yl]amino]hexanoic Acid Chloride Salt], the values for the ε in data set [1] (UV-Vis in PBS) and in data set [1] (UV-Vis in ethanol) were 39,200 l/mol*cm and 32,500 l/mol*cm, respectively. For the same compound, the λmax in data set [1] (UV-Vis in PBS) was found to be 505 nm; in data set [1] (UV-Vis in ethanol), 510 nm. The λem in data set [2] (in PBS) is 570 nm; in data set [2] (in ethanol), 575 nm. The QY was determined as 0.58 in data set [3] (in PBS) and 0.82 in data set [3] (in ethanol).
Take `CC1(C)CC(NCCCS(=O)(=O)[O-])=Cc2[o+]c3cc(N(CCCCCC(=O)O)CCCS(=O)(=O)[O-])ccc3cc21.[Na+]` [Compound 5, 3-[[6-[5-carboxypentyl(3-sulfonatopropyl)amino]-1,1-dimethyl-2H-xanthene-10-ium-3-yl]amino]propane-1-sulfonate Sodium Salt]: the ε in data set [1] (UV-Vis in PBS) is 45,000 l/mol*cm; in data set [1] (UV-Vis in ethanol), 49,800 l/mol*cm. Further, the results for the λmax in data set [1] (UV-Vis in PBS) and in data set [1] (UV-Vis in ethanol) were 505 nm and 512 nm, respectively. In addition, the values for the λem in data set [2] (in PBS) and in data set [2] (in ethanol) were 572 nm and 570 nm, respectively. Also, the QY in data set [3] (in PBS) is reported as 0.72; in data set [3] (in ethanol), 0.87.
For the compound `CN(C1=Cc2[o+]c3cc(N(CCCCCC(=O)O)CCCS(=O)(=O)[O-])ccc3cc2C(C)(C)C1)c1ccccc1` [Compound 9, 3-[5-carboxypentyl-[8,8-dimethyl-6-(N-methylanilino)-7H-xanthene-10-ium-3-yl]amino]propane-1-sulfonate], the ε is recorded as 39,000 l/mol*cm in data set [1] (UV-Vis in PBS) and 41,000 l/mol*cm in data set [1] (UV-Vis in ethanol). For the same compound, the λmax in data set [1] (UV-Vis in PBS) is listed as 523 nm; in data set [1] (UV-Vis in ethanol), 531 nm. The λem in data set [2] (in PBS) amounted to 600 nm; in data set [2] (in ethanol), 601 nm. The values for the QY in data set [3] (in PBS) and in data set [3] (in ethanol) were 0,24 and 0.47, respectively.
Take `CCN(CCCCCC(=O)O)c1ccc2cc3c([o+]c2c1)C=C(N(C)c1ccc(S(=O)(=O)[O-])cc1)CC3(C)C` [Compound 12, 4-[[6-[5-carboxypentyl(ethyl)amino]-1,1-dimethyl-2H-xanthene-10-ium-3-yl]-methyl-amino]benzenesulfonate]: the ε in data set [1] (UV-Vis in PBS) is reported as 45,000 l/mol*cm; in data set [1] (UV-Vis in ethanol), 50,000 l/mol*cm. Also, the λmax is 532 nm in data set [1] (UV-Vis in PBS) and 533 nm in data set [1] (UV-Vis in ethanol). Besides, the λem is 619 nm in data set [2] (in PBS) and 610 nm in data set [2] (in ethanol). In addition, the figures for the QY in data set [3] (in PBS) and in data set [3] (in ethanol) were 0.26 and 0.51, respectively.
On to `CCN(CCCCCC(=O)O)c1ccc2cc3c([o+]c2c1)C=C(N(C)c1ccccc1)CC3(C)C.[Cl-]` [Compound 11, 6-[[8,8-dimethyl-6-(N-methylanilino)-7H-xanthene-10-ium-3-yl]-ethyl-amino]hexanoic Acid Chloride Salt], for which the ε is recorded as 39,000 l/mol*cm in data set [1] (UV-Vis in PBS) and 44,000 l/mol*cm in data set [1] (UV-Vis in ethanol). Also, the λmax in data set [1] (UV-Vis in PBS) stood at 526 nm; in data set [1] (UV-Vis in ethanol) it was 531 nm. In addition, the λem in data set [2] (in PBS) is recorded as 606 nm; in data set [2] (in ethanol), 601 nm. For the same compound, the values for the QY in data set [3] (in PBS) and in data set [3] (in ethanol) were 0.27 and 0.42, respectively.
Regarding `CC1=CC(C)(C)N(CCCS(=O)(=O)[O-])c2cc3[o+]c4c(cc3cc21)C(C)(C)CC(N(C)CCCC(=O)O)=C4` [Compound 23, 3-[9-[3-carboxypropyl(methyl)amino]-2,2,4,7,7-pentamethyl-8H-chromeno[3,2-g]quinolin-11-ium-1-yl]propane-1-sulfonate], the ε was 45,400 l/mol*cm in data set [1] (UV-Vis in PBS) and 55,000 l/mol*cm in data set [1] (UV-Vis in ethanol). Also, the λmax was found to be 527 nm in data set [1] (UV-Vis in PBS) and 542 nm in data set [1] (UV-Vis in ethanol). The λem in data set [2] (in PBS) and in data set [2] (in ethanol) was 600 nm each time. Besides, the QY worked out at 0.58 in data set [3] (in PBS) and 0.88 in data set [3] (in ethanol).
Regarding `CN(C1=Cc2[o+]c3cc(N(CCCCCC(=O)O)CCCS(=O)(=O)[O-])ccc3cc2C(C)(C)C1)c1ccc(S(=O)(=O)[O-])cc1.[Na+]` [Compound 10, 4-[[6-[5-carboxypentyl(3-sulfonatopropyl)amino]-1,1-dimethyl-2H-xanthene-10-ium-3-yl]-methyl-amino]benzenesulfonate sodium Salt], the ε in data set [1] (UV-Vis in PBS) is 44,000 l/mol*cm; in data set [1] (UV-Vis in ethanol) it was 48,000 l/mol*cm. Further, the λmax in data set [1] (UV-Vis in PBS) is listed as 527 nm; in data set [1] (UV-Vis in ethanol), 533 nm. Moreover, the λem in data set [2] (in PBS) was determined as 612 nm; in data set [2] (in ethanol), 609 nm. For the same compound, the QY is listed as 0.35 in data set [3] (in PBS) and 0.57 in data set [3] (in ethanol).
With `CCN(CCCCCC(=O)O)c1ccc2c(c1)OC1=C(S(=O)(=O)[O-])C(=O)CC(C)(C)C1=C2.[Na+]` [Compound 36, 6-[5-carboxypentyl(ethyl)amino]-1,1-dimethyl-3-oxo-2H-xanthene-4-sulfonate Sodium Salt], the ε is listed as 30,100 l/mol*cm in data set [1] (UV-Vis in PBS) and 25,000 l/mol*cm in data set [1] (UV-Vis in ethanol). The results for the λmax in data set [1] (UV-Vis in PBS) and in data set [1] (UV-Vis in ethanol) were 482 nm and 446 nm, respectively. Moreover, the λem turned out to be 565 nm in data set [2] (in PBS) and 542 nm in data set [2] (in ethanol). Further, the QY in data set [3] (in PBS) came out at 0.66; in data set [3] (in ethanol), 0.90.
As to `CCN(CCCCCC(=O)O)c1ccc2cc3c([o+]c2c1)C=C(NCCCS(=O)(=O)[O-])CC3(C)C` [Compound 8, 3-[[6-[5-Carboxypentyl(ethyl)amino]-1,1-dimethyl-2H-xanthene-10-ium-3-yl]amino]propane-1-sulfonate], the ε is 38,500 l/mol*cm in data set [1] (UV-Vis in PBS) and 41,600 l/mol*cm in data set [1] (UV-Vis in ethanol). In addition, the λmax in data set [1] (UV-Vis in PBS) stood at 509 nm; in data set [1] (UV-Vis in ethanol) it was 511 nm. In addition, the λem came to 578 nm in data set [2] (in PBS) and 571 nm in data set [2] (in ethanol). Further, the values for the QY in data set [3] (in PBS) and in data set [3] (in ethanol) were 0.58 and 0.84, respectively.
Consider `CC1(C)CC(=O)C(S(=O)(=O)[O-])=C2Oc3cc(N(CCCCCC(=O)O)CCCS(=O)(=O)[O-])ccc3C=C21.[Na+].[Na+]` [Compound 38, 6-[5-carboxypentyl(3-sulfonatopropyl)amino]-1,1-dimethyl-3-oxo-2H-xanthene-4-sulfonate di-sodium SALT], for which the values for the ε in data set [1] (UV-Vis in PBS) and in data set [1] (UV-Vis in ethanol) were 28,000 l/mol*cm and 31,000 l/mol*cm, respectively. Further, the λmax in data set [1] (UV-Vis in PBS) was found to be 479 nm; in data set [1] (UV-Vis in ethanol), 463 nm. In addition, the λem in data set [2] (in PBS) was determined as 557 nm; in data set [2] (in ethanol) it was 544 nm. The QY is 0.78 in data set [3] (in PBS) and 0.91 in data set [3] (in ethanol).
For `CCN(CCCCCC(=O)O)c1ccc2cc3c([o+]c2c1)C=C(Nc1ccc2cc(S(=O)(=O)[O-])ccc2c1)CC3(C)C` [Compound 15, 6-[[6-[5-carboxypentyl(ethyl)amino]-1,1-dimethyl-2H-xanthene-10-ium-3-yl]amino]naphthalene-2-sulfonate], in data set [1] (UV-Vis in ethanol), the ε is 32,000 l/mol*cm and the λmax was 546 nm. The λem in data set [2] (in ethanol) was 619 nm.
In the same order, the values of `CCN(CCCCCC(=O)O)c1ccc2cc3c([o+]c2c1)C=C(N(Cc1ccccn1)Cc1ccccn1)CC3(C)C.[Cl-]` [Compound 28, 6-[[6-[bis(2-pyridylmethyl)amino]-8,8-dimethyl-7H-xanthene-10-ium-3-yl]-ethyl-amino]hexanoic Acid Chloride Salt] are 28,000 l/mol*cm, 531 nm and 593 nm.
`CCN(CC)c1ccc2c(c1)OC1=Cc3[o+]c4cc(N(CC)CC)ccc4c(-c4ccccc4C(=O)O)c3C(C)(C)C1=C2.[Cl-]` [Compound 46, 2-[3,9-bis(diethylamino)-13,13-dimethyl-chromeno[3,2-b]xanthene-5-ium-14-yl]benzoic Acid Chloride Salt]: the results for the ε in data set [1] (UV-Vis in PBS) and in data set [1] (UV-Vis in ethanol) were 42000 L/mol/cm and 60,000 l/mol*cm, respectively. Moreover, the λmax in data set [1] (UV-Vis in PBS) worked out at 663 nm; in data set [1] (UV-Vis in ethanol), 664 nm. Besides, the λem is 711 nm in data set [2] (in PBS) and 710 nm in data set [2] (in ethanol).
As for `CCN(CCCCCC(=O)O)c1ccc2c(c1)OC1=CC(=O)CC(C)(C)C1=C2` [Compound 35, 6-[(8,8-dimethyl-6-oxo-7H-xanthene-3-yl)-ethyl-amino]hexanoic Acid], the ε is listed as 24,200 l/mol*cm in data set [1] (UV-Vis in PBS) and 25,300 l/mol*cm in data set [1] (UV-Vis in ethanol). Further, the results for the λmax in data set [1] (UV-Vis in PBS) and in data set [1] (UV-Vis in ethanol) were 457 nm and 441 nm, respectively. Further, the values for the λem in data set [2] (in PBS) and in data set [2] (in ethanol) were 559 nm and 540 nm, respectively.
With `CCN(CCCCCC(=O)O)c1ccc2cc3c([o+]c2c1)C(S(=O)(=O)[O-])=C(Nc1ccc(S(=O)(=O)[O-])cc1)CC3(C)C.[Na+]` [Compound 14, 6-[5-carboxypentyl(ethyl)amino]-1,1-dimethyl-3-(4-sulfonatoanilino)-2H-xanthene-10-ium-4-sulfonate Sodium Salt], the ε in data set [1] (UV-Vis in PBS) is reported as 40,100 l/mol*cm; in data set [1] (UV-Vis in ethanol) it was 45,300 l/mol*cm. Besides, the λmax worked out at 545 nm in data set [1] (UV-Vis in PBS) and 542 nm in data set [1] (UV-Vis in ethanol). In addition, the figures for the λem in data set [2] (in PBS) and in data set [2] (in ethanol) were 625 nm and 616 nm, respectively. Moreover, the QY was determined as 0.11 in data set [3] (in PBS) and 0.61 in data set [3] (in ethanol).
